Results published in patent US20130065818A1, “Arylamide Compounds And Compositions And Uses Thereof” (POLYMEDIX, priority 2006, published 2013).
Values after ≈ are worked out from the molar mass of the structure shown. Like-named read-outs stand apart in the source and are kept apart here.

Key:
Pseudomonas aeruginosa = assay: MIC, 25 ocular isolates, broth microdilution (Example 8); assay type: cell-based
Summary of the method: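 Broth microdilution in Mueller-Hinton broth, polypropylene plates, inoculum from 0.5 McFarland suspension diluted 0.05 ml into 5 ml; final test agent 64–0.0625 μg/ml (128–0.125 μg/ml for P. aeruginosa) in 0.01% acetic acid, 0.2% BSA diluent. Incubated 37° C overnight; MIC read visually as lowest concentration inhibiting visible growth.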

Serratia marcescens = assay: as above; assay type: cell-based
[1] = 25 isolates, Summary of Results, >128 was Replaced with 256

N=C(N)NCCCCC(=O)Nc1cc(C(F)(F)F)cc(NC(=O)c2cnc(C(=O)Nc3cc(C(F)(F)F)cc(NC(=O)CCCCNC(=N)N)c3SCCN)cn2)c1SCCN [Oligomer 5]
MIC50 (Pseudomonas aeruginosa; 25 isolates, Row 13): 64 µg/mL (≈ 69.8 µM) | Range of MICs (Pseudomonas aeruginosa; [1]): 4 to 256 µg/mL | MIC (Pseudomonas aeruginosa; Pseudomonas aeruginosa, 25 ocular isolates, read-out: Median MIC): 64 µg/mL (≈ 69.8 µM) | MIC (Pseudomonas aeruginosa; Pseudomonas aeruginosa, isolate 1—K1673, read-out: MIC): 32 µg/mL (≈ 34.9 µM) | MIC (Pseudomonas aeruginosa; Pseudomonas aeruginosa, isolate 2—K1668, read-out: MIC): 64 µg/mL (≈ 69.8 µM) | MIC (Pseudomonas aeruginosa; Pseudomonas aeruginosa, isolate 3—K1662, read-out: MIC): 64 µg/mL (≈ 69.8 µM) | MIC (Pseudomonas aeruginosa; Pseudomonas aeruginosa, isolate 4—K1657, read-out: MIC): 64 µg/mL (≈ 69.8 µM) | MIC (Pseudomonas aeruginosa; Pseudomonas aeruginosa, isolate 5—K1651, read-out: MIC): 128 µg/mL (≈ 140 µM) | MIC (Pseudomonas aeruginosa; Pseudomonas aeruginosa, isolate 6—K1649, read-out: MIC): 64 µg/mL (≈ 69.8 µM) | MIC (Pseudomonas aeruginosa; Pseudomonas aeruginosa, isolate 7—K1564, read-out: MIC): > 128 µg/mL | MIC (Pseudomonas aeruginosa; Pseudomonas aeruginosa, isolate 8—K1636, read-out: MIC): 4 µg/mL (≈ 4.36 µM) | MIC (Pseudomonas aeruginosa; Pseudomonas aeruginosa, isolate 9—K1634, read-out: MIC): 128 µg/mL (≈ 140 µM) | MIC (Pseudomonas aeruginosa; Pseudomonas aeruginosa, isolate 10—K1633, read-out: MIC): 64 µg/mL (≈ 69.8 µM) | MIC (Pseudomonas aeruginosa; Pseudomonas aeruginosa, isolate 11—K1632, read-out: MIC): 64 µg/mL (≈ 69.8 µM) | MIC (Pseudomonas aeruginosa; Pseudomonas aeruginosa, isolate 12—K1631, read-out: MIC): 64 µg/mL (≈ 69.8 µM) | MIC (Pseudomonas aeruginosa; Pseudomonas aeruginosa, isolate 13—K1629, read-out: MIC): 64 µg/mL (≈ 69.8 µM) | MIC (Pseudomonas aeruginosa; Pseudomonas aeruginosa, isolate 14—K1627, read-out: MIC): 64 µg/mL (≈ 69.8 µM) | MIC (Pseudomonas aeruginosa; Pseudomonas aeruginosa, isolate 15—K1626, read-out: MIC): 128 µg/mL (≈ 140 µM) | MIC (Pseudomonas aeruginosa; Pseudomonas aeruginosa, isolate 16—K1625, read-out: MIC): 64 µg/mL (≈ 69.8 µM) | MIC (Pseudomonas aeruginosa; Pseudomonas aeruginosa, isolate 17—K1562, read-out: MIC): 128 µg/mL (≈ 140 µM) | MIC (Pseudomonas aeruginosa; Pseudomonas aeruginosa, isolate 18—K1613, read-out: MIC): 32 µg/mL (≈ 34.9 µM) | MIC (Pseudomonas aeruginosa; Pseudomonas aeruginosa, isolate 19—K1553, read-out: MIC): 128 µg/mL (≈ 140 µM) | MIC (Pseudomonas aeruginosa; Pseudomonas aeruginosa, isolate 20—K1594, read-out: MIC): 64 µg/mL (≈ 69.8 µM) | MIC (Pseudomonas aeruginosa; Pseudomonas aeruginosa, isolate 21—K1588, read-out: MIC): 128 µg/mL (≈ 140 µM) | MIC (Pseudomonas aeruginosa; Pseudomonas aeruginosa, isolate 22—K1554, read-out: MIC): 128 µg/mL (≈ 140 µM) | MIC (Pseudomonas aeruginosa; Pseudomonas aeruginosa, isolate 23—K1580, read-out: MIC): 32 µg/mL (≈ 34.9 µM) | MIC (Pseudomonas aeruginosa; Pseudomonas aeruginosa, isolate 24—K1577, read-out: MIC): 64 µg/mL (≈ 69.8 µM) | MIC (Pseudomonas aeruginosa; Pseudomonas aeruginosa, isolate 25—K1576, read-out: MIC): 128 µg/mL (≈ 140 µM) | MIC (Pseudomonas aeruginosa; Pseudomonas aeruginosa, n=25 per group, read-out: Median MIC): 64 µg/mL (≈ 69.8 µM) | MIC50 (Pseudomonas aeruginosa; Pseudomonas aeruginosa, 25 isolates, Summary of Results, read-out: MIC50): 64 µg/mL (≈ 69.8 µM) | MIC90 (Pseudomonas aeruginosa; Pseudomonas aeruginosa, 25 isolates, Summary of Results, read-out: MIC90): 128 µg/mL (≈ 140 µM) | MIC (Pseudomonas aeruginosa; Pseudomonas aeruginosa, 25 isolates, Summary of Results, read-out: Median MIC): 64 µg/mL (≈ 69.8 µM) | MIC50 (Pseudomonas aeruginosa; n=25 per group): 64 µg/mL (≈ 69.8 µM) | MIC90 (Pseudomonas aeruginosa; n=25 per group): 128 µg/mL (≈ 140 µM) | Range of MICs (Pseudomonas aeruginosa; n=25 per group): 4 to 256 µg/mL | MIC50 (Serratia marcescens; 25 isolates, Row 13, >128 was Replaced with 256): 256 µg/mL (≈ 279 µM) | MIC90 (Serratia marcescens; 25 isolates, Row 22, >128 was Replaced with 256): 256 µg/mL (≈ 279 µM) | Range of MICs (Serratia marcescens; [1]): 8 to 256 µg/mL | MIC (Serratia marcescens; Serratia marcescens, 25 ocular isolates, read-out: Median MIC): 128 µg/mL (≈ 140 µM) | MIC (Serratia marcescens; Serratia marcescens, isolate 1—K1681, read-out: MIC): > 128 µg/mL | MIC (Serratia marcescens; Serratia marcescens, isolate 2—K1674, read-out: MIC): > 128 µg/mL | MIC (Serratia marcescens; Serratia marcescens, isolate 3—K1558, read-out: MIC): > 128 µg/mL | MIC (Serratia marcescens; Serratia marcescens, isolate 4—K1538, read-out: MIC): > 128 µg/mL | MIC (Serratia marcescens; Serratia marcescens, isolate 5—K1503, read-out: MIC): > 128 µg/mL | MIC (Serratia marcescens; Serratia marcescens, isolate 6—K1216, read-out: MIC): > 128 µg/mL | MIC (Serratia marcescens; Serratia marcescens, isolate 7—K1496, read-out: MIC): > 128 µg/mL | MIC (Serratia marcescens; Serratia marcescens, isolate 8—K1481, read-out: MIC): > 128 µg/mL | MIC (Serratia marcescens; Serratia marcescens, isolate 9—K1470, read-out: MIC): > 128 µg/mL | MIC (Serratia marcescens; Serratia marcescens, isolate 10—K1468, read-out: MIC): > 128 µg/mL | MIC (Serratia marcescens; Serratia marcescens, isolate 11—K1467, read-out: MIC): > 128 µg/mL | MIC (Serratia marcescens; Serratia marcescens, isolate 12—K1462, read-out: MIC): > 128 µg/mL | MIC (Serratia marcescens; Serratia marcescens, isolate 13—K1461, read-out: MIC): 128 µg/mL (≈ 140 µM) | MIC (Serratia marcescens; Serratia marcescens, isolate 14—K1413, read-out: MIC): > 128 µg/mL | MIC (Serratia marcescens; Serratia marcescens, isolate 15—K1402, read-out: MIC): 8 µg/mL (≈ 8.72 µM) | MIC (Serratia marcescens; Serratia marcescens, isolate 16—K1357, read-out: MIC): > 128 µg/mL | MIC (Serratia marcescens; Serratia marcescens, isolate 17—K1351, read-out: MIC): 64 µg/mL (≈ 69.8 µM) | MIC (Serratia marcescens; Serratia marcescens, isolate 18—K1327, read-out: MIC): > 128 µg/mL | MIC (Serratia marcescens; Serratia marcescens, isolate 19—K1321, read-out: MIC): > 128 µg/mL | MIC (Serratia marcescens; Serratia marcescens, isolate 20—K1315, read-out: MIC): > 128 µg/mL | MIC (Serratia marcescens; Serratia marcescens, isolate 21—K1306, read-out: MIC): > 128 µg/mL | MIC (Serratia marcescens; Serratia marcescens, isolate 22—K1290, read-out: MIC): > 128 µg/mL | MIC (Serratia marcescens; Serratia marcescens, isolate 23—K1265, read-out: MIC): > 128 µg/mL | MIC (Serratia marcescens; Serratia marcescens, isolate 24—K1263, read-out: MIC): > 128 µg/mL | MIC (Serratia marcescens; Serratia marcescens, isolate 25—K1239, read-out: MIC): > 128 µg/mL | MIC (Serratia marcescens; Serratia marcescens, n=25 per group, read-out: Median MIC): 256 µg/mL (≈ 279 µM) | MIC50 (Serratia marcescens; Serratia marcescens, 25 isolates, Summary of Results, >128 was Replaced with 256, read-out: MIC50): 256 µg/mL (≈ 279 µM) | MIC90 (Serratia marcescens; Serratia marcescens, 25 isolates, Summary of Results, >128 was Replaced with 256, read-out: MIC90): 256 µg/mL (≈ 279 µM) | MIC (Serratia marcescens; Serratia marcescens, 25 isolates, Summary of Results, >128 was Replaced with 256, read-out: Median MIC): 256 µg/mL (≈ 279 µM) | MIC50 (Serratia marcescens; n=25 per group): 256 µg/mL (≈ 279 µM) | MIC90 (Serratia marcescens; n=25 per group): 256 µg/mL (≈ 279 µM) | Range of MICs (Serratia marcescens; n=25 per group): 8 to 256 µg/mL
